From US20220144799A1, “PESTICIDALLY ACTIVE HETEROCYCLIC DERIVATIVES WITH SULFUR CONTAINING SUBSTITUENTS” (SYNGENTA CROP PROTECTION AG, priority 2019, published 2022)

Legend:
Type in all cases: in vivo
[1] = system: Plutella xylostella (Diamond Back Moth); assay: Activity against Plutella xylostella (diamond back moth), treated artificial diet; conditions: 192 h, application rate of 200 ppm, Plutella eggs, 8 days after infestation, read-out: effect in at least one of the two categories (mortality or growth inhibition)
Protocol: Example B4: Activity Against Plutella xylostella (Diamond Back Moth)
24-well microtiter plates with artificial diet were treated with aqueous test solutions prepared from 10′000 ppm DMSO stock solutions by pipetting. After drying, Plutella eggs were pipetted through a plastic stencil onto a gel blotting paper and the plate was closed with it. The samples were assessed for mortality and growth inhibition in comparison to untreated samples 8 days after infestation.
(§1) The following compounds gave an effect of at least 80% in at least one of the two categories (mortality or growth inhibition) at an application rate of 200 ppm: […]

[2] = system: Bemisia tabaci (Cotton White Fly); assay: Activity against Bemisia tabaci (cotton white fly), sprayed cotton leaf discs; conditions: foliar, 144 h, application rate of 200 ppm, adult white flies, 6 days after incubation
Protocol: Example B1: Activity Against Bemisia tabaci (Cotton White Fly)
Cotton leaf discs were placed on agar in 24-well microtiter plates and sprayed with aqueous test solutions prepared from 10′000 ppm DMSO stock solutions. After drying the leaf discs were infested with adult white flies. The samples were checked for mortality 6 days after incubation.

[3] = system: Diabrotica Balteata (Corn Root Worm); assay: Activity against Diabrotica balteata (corn root worm), sprayed maize sprouts; conditions: 96 h, application rate of 200 ppm, L2 larvae, 4 days after infestation, read-out: effect in at least one of the two categories (mortality or growth inhibition)
Protocol: Example B2: Activity Against Diabrotica Balteata (Corn Root Worm)
Maize sprouts placed onto an agar layer in 24-well microtiter plates were treated with aqueous test solutions prepared from 10′000 ppm DMSO stock solutions by spraying. After drying, the plates were infested with L2 larvae (6 to 10 per well). The samples were assessed for mortality and growth inhibition in comparison to untreated samples 4 days after infestation.
as §1

[4] = system: Spodoptera littoralis (Egyptian Cotton Leaf Worm); assay: Activity against Spodoptera littoralis (Egyptian cotton leaf worm), sprayed cotton leaf discs; conditions: foliar, 72 h, application rate of 200 ppm, L1 larvae, 3 days after infestation
Protocol: Example B7: Activity Against Spodoptera littoralis (Egyptian Cotton Leaf Worm)
Cotton leaf discs were placed onto agar in 24-well microtiter plates and sprayed with aqueous test solutions prepared from 10′000 ppm DMSO stock solutions. After drying the leaf discs were infested with five L1 larvae. The samples were assessed for mortality, anti-feeding effect, and growth inhibition in comparison to untreated samples 3 days after infestation. Control of Spodoptera littoralis by a test sample is given when at least one of the categories mortality, anti-feedant effect, and growth inhibition is higher than the untreated sample.

[5] = system: Euschistus heros (Neotropical Brown Stink Bug); assay: Activity against Euschistus heros (neotropical brown stink bug), sprayed soybean leaves; conditions: 120 h, application rate of 200 ppm, N2 nymphs, 5 days after infestation, read-out: effect in at least one of the two categories (mortality or growth inhibition)
Protocol: Example B3: Activity Against Euschistus heros (Neotropical Brown Stink Bug)
Soybean leaves on agar in 24-well microtiter plates were sprayed with aqueous test solutions prepared from 10′000 ppm DMSO stock solutions. After drying the leaves were infested with N2 nymphs. The samples were assessed for mortality and growth inhibition in comparison to untreated samples 5 days after infestation.
as §1

[6] = system: Myzus persicae (Green Peach Aphid); assay: Activity against Myzus persicae (green peach aphid), systemic activity, pea seedling roots in test solution; conditions: 144 h, test rate of 24 ppm, aphid population of mixed ages, 6 days after placing seedlings into test solutions
Protocol: Example B6: Activity Against Myzus persicae (Green Peach Aphid) Systemic Activity
Roots of pea seedlings infested with an aphid population of mixed ages were placed directly into aqueous test solutions prepared from 10′000 DMSO stock solutions. The samples were assessed for mortality 6 days after placing seedlings into test solutions.

[7] = system: Myzus persicae (Green Peach Aphid); assay: Activity against Myzus persicae (green peach aphid), feeding/contact activity, sunflower leaf discs; conditions: foliar, 144 h, application rate of 200 ppm, aphid population of mixed ages, 6 days after infestation
Protocol: Example B5: Activity Against Myzus persicae (Green Peach Aphid) Feeding/Contact Activity
Sunflower leaf discs were placed onto agar in a 24-well microtiter plate and sprayed with aqueous test solutions prepared from 10′000 ppm DMSO stock solutions. After drying, the leaf discs were infested with an aphid population of mixed ages. The samples were assessed for mortality 6 days after infestation.

CCS(=O)(=O)c1ccc(-n2cncn2)nc1-c1ncc(OCC(F)(F)C(F)(F)F)c(=O)n1C [Compound P14, 2-[3-ethylsulfonyl-6-(1,2,4-triazol-1-yl)-2-pyridyl]-3-methyl-5-(2,2,3,3,3-pentafluoropropoxy) pyrimidin-4-one]
≥ 80%: percent effect (mortality or growth inhibition) at 200 ppm [1] | mortality at 200 ppm [2] | percent effect (mortality or growth inhibition) at 200 ppm [3] | percent control (mortality, anti-feedant effect or growth inhibition) at 200 ppm [4] | percent effect (mortality or growth inhibition) at 200 ppm [5] | mortality at 24 ppm [6] | mortality at 200 ppm [7]

CCS(=O)(=O)c1cc(Oc2ccccn2)cnc1-c1ncc(OCC(F)(F)C(F)(F)F)c(=O)n1C [Compound P20, 2-[3-ethylsulfonyl-5-(2-pyridyloxy)-2-pyridyl]-3-methyl-5-(2,2,3,3,3-pentafluoropropoxy) pyrimidin-4-one]
≥ 80%: percent effect (mortality or growth inhibition) at 200 ppm [1] | percent effect (mortality or growth inhibition) at 200 ppm [3] | percent control (mortality, anti-feedant effect or growth inhibition) at 200 ppm [4] | percent effect (mortality or growth inhibition) at 200 ppm [5] | mortality at 24 ppm [6] | mortality at 200 ppm [7]

CCS(=O)(=O)c1cc(C2(C#N)CC2)cnc1-c1ncc(OCC(F)(F)C(F)(F)F)c(=O)n1C [Compound P11, 1-[5-ethylsulfonyl-6-[1-methyl-6-oxo-5-(2,2,3,3,3-pentafluoropropoxy)-pyrimidin-2-yl]-3-pyridyl]cyclopropanecarbonitrile]
≥ 80%: percent effect (mortality or growth inhibition) at 200 ppm [1] | mortality at 200 ppm [2] | percent effect (mortality or growth inhibition) at 200 ppm [3] | percent control (mortality, anti-feedant effect or growth inhibition) at 200 ppm [4] | percent effect (mortality or growth inhibition) at 200 ppm [5] | mortality at 24 ppm [6] | mortality at 200 ppm [7]

CCS(=O)(=O)c1cc(N(C)C(C)=O)cnc1-c1ncc(OCC(F)(F)C(F)(F)F)c(=O)n1C [Compound P5, N-[5-ethylsulfonyl-6-[1-methyl-6-oxo-5-(2,2,3,3,3-pentafluoropropoxy)-pyrimidin-2-yl]-3-pyridyl]-N-methyl-acetamide]
≥ 80%: percent effect (mortality or growth inhibition) at 200 ppm [1] | percent effect (mortality or growth inhibition) at 200 ppm [3] | percent effect (mortality or growth inhibition) at 200 ppm [5] | mortality at 24 ppm [6] | mortality at 200 ppm [7]

CCS(=O)(=O)c1cccnc1-c1ncc(OCC(F)(F)C(F)(F)F)c(=O)n1C [Compound P2, 2-(3-ethylsulfonyl-2-pyridyl)-3-methyl-5-(2,2,3,3,3-pentafluoro-propoxy)pyrimidin-4-one]
≥ 80%: percent effect (mortality or growth inhibition) at 200 ppm [1] | mortality at 200 ppm [2] | percent effect (mortality or growth inhibition) at 200 ppm [3] | percent control (mortality, anti-feedant effect or growth inhibition) at 200 ppm [4] | percent effect (mortality or growth inhibition) at 200 ppm [5] | mortality at 24 ppm [6] | mortality at 200 ppm [7]

CCS(=O)(=O)c1ccc(N(C)C(=O)NC)nc1-c1ncc(OCC(F)(F)C(F)(F)F)c(=O)n1C [Compound P15, 1-[5-ethylsulfonyl-6-[1-methyl-6-oxo-5-(2,2,3,3,3-pentafluoropropoxy)pyrimidin-2-yl]-2-pyridyl]-1,3-dimethyl-urea]
≥ 80%: percent effect (mortality or growth inhibition) at 200 ppm [5] | mortality at 24 ppm [6] | mortality at 200 ppm [7]

CCS(=O)(=O)c1cc(C(C)(C)C#N)cnc1-c1ncc(OCC(F)(F)C(F)(F)F)c(=O)n1C [Compound P13, 2-[5-ethylsulfonyl-6-[1-methyl-6-oxo-5-(2,2,3,3,3-pentafluoropropoxy)pyrimidin-2-yl]-3-pyridyl]-2-methyl-propanenitrile]
≥ 80%: percent effect (mortality or growth inhibition) at 200 ppm [1] | mortality at 200 ppm [2] | percent effect (mortality or growth inhibition) at 200 ppm [3] | percent control (mortality, anti-feedant effect or growth inhibition) at 200 ppm [4] | percent effect (mortality or growth inhibition) at 200 ppm [5] | mortality at 24 ppm [6]

CCSc1cccnc1-c1ncc(OCC(F)(F)C(F)(F)F)c(=O)n1C [Compound P1, 2-(3-ethylsulfanyl-2-pyridyl)-3-methyl-5-(2,2,3,3,3-pentafluoro-propoxy)pyrimidin-4-one]
≥ 80%: percent effect (mortality or growth inhibition) at 200 ppm [1] | mortality at 200 ppm [2] | percent effect (mortality or growth inhibition) at 200 ppm [3] | percent effect (mortality or growth inhibition) at 200 ppm [5] | mortality at 24 ppm [6] | mortality at 200 ppm [7]

CCS(=O)(=O)c1cc(C2CC2)cnc1-c1ncc(OCC(F)(F)C(F)(F)F)c(=O)n1C [Compound P18, 2-(5-cyclopropyl-3-ethylsulfonyl-2-pyridyl)-3-methyl-5-(2,2,3,3,3-pentafluoropropoxy) pyrimidin-4-one]
≥ 80%: percent effect (mortality or growth inhibition) at 200 ppm [1] | percent effect (mortality or growth inhibition) at 200 ppm [3] | percent control (mortality, anti-feedant effect or growth inhibition) at 200 ppm [4] | percent effect (mortality or growth inhibition) at 200 ppm [5] | mortality at 24 ppm [6] | mortality at 200 ppm [7]

CCS(=O)(=O)c1ccc(N(C)C(=O)C2CC2)nc1-c1ncc(OCC(F)(F)C(F)(F)F)c(=O)n1C [Compound P16, N-[5-ethylsulfonyl-6-[1-methyl-6-oxo-5-(2,2,3,3,3-pentafluoropropoxy)pyrimidin-2-yl]-2-pyridyl]-N-methyl-cyclo-propanecarboxamide]
≥ 80%: percent effect (mortality or growth inhibition) at 200 ppm [1] | mortality at 200 ppm [2] | percent effect (mortality or growth inhibition) at 200 ppm [3] | percent control (mortality, anti-feedant effect or growth inhibition) at 200 ppm [4] | percent effect (mortality or growth inhibition) at 200 ppm [5] | mortality at 24 ppm [6] | mortality at 200 ppm [7]

CCS(=O)(=O)c1ccc(N(C)C(C)=O)nc1-c1ncc(OCC(F)(F)C(F)(F)F)c(=O)n1C [Compound P9, N-[5-ethylsulfonyl-6-[1-methyl-6-oxo-5-(2,2,3,3,3-pentafluoropropoxy)-pyrimidin-2-yl]-2-pyridyl]-N-methyl-acetamide]
≥ 80%: percent effect (mortality or growth inhibition) at 200 ppm [1] | mortality at 200 ppm [2] | percent effect (mortality or growth inhibition) at 200 ppm [3] | mortality at 24 ppm [6] | mortality at 200 ppm [7]
